Tests used:
Diamondback moth = test: Insecticidal effect on diamondback moth (cabbage leaf disc dip test); format: in vivo; details: for Insecticidal Effect (%) Diamondback moth (1 mg/L): leaf disc immersed 10 seconds, larvae, mortality; for mortality at 1 µg/mL: Plutella xylostella, foliar, 72 h, concentration of 1 mg/L, 3 days
Method: (§1) The compound to be tested dissolved in acetone and 1‰ Tween-80 solution, and was formulated to 50 ml of the test solution with desired concentration. The cabbage leaves having been cleaned and dried were made into leaf disc with diameter of 1 cm with hole puncher. The leaf disc were immersed in the drug liquid for 10 seconds and then removed, dried naturally, loaded in the culture dish. 10 […] diamondback moth larvae were introduced per dish and repeated for three times. After the treatment, the dishes were placed into a room with temperature of 20° C., relative humidity of 60-70% and without illumination to take an indoor culture. The survival of insects was surveyed and the mortality was calculated.

pink stem borer = test: Insecticidal effect on pink stem borer (method of Test Example 1); format: in vivo; details: for Insecticidal Effect (%) pink stem borer (2 mg/L): leaf disc immersed 10 seconds, mortality
Method: [The procedure below names another organism; the source lists this organism under the same test.] as §1

SMILES	Insecticidal Effect (%) Diamondback moth (1 mg/L) (Diamondback moth)	mortality at 1 µg/mL (Diamondback moth)	Insecticidal Effect (%) pink stem borer (2 mg/L) (pink stem borer)	mortality to pink stem borer in 3 days (pink stem borer; concentration of 2 mg/L, 3 days)
N#Cc1cc(Cl)cc(Cl)c1NC(=O)c1cc(Br)nn1-c1ncc(Cl)cc1F [Compound I-6]	100%	100%	90%	–
N#Cc1cc(Cl)cc(Cl)c1NC(=O)c1cc(Br)nn1-c1ncc(Cl)cc1Cl [Compound I-5]	100%	100%	70%	–
Cc1cc(Cl)cc(C#N)c1NC(=O)c1cc(Br)nn1-c1ncc(Cl)cc1F [Compound I-3]	100%	100%	85%	–
Cc1cc(Cl)cc(C#N)c1NC(=O)c1cc(Br)nn1-c1ncc(Cl)cc1Cl [Compound I-2]	80%	–	50%	–
Cc1cc(Cl)cc(C#N)c1NC(=O)c1cc(Br)nn1-c1ncccc1Cl [Compound I-1]	50%	–	40%	–
Cc1cc(Cl)cc(C#N)c1NC(=O)c1cc(Br)nn1-c1ncc(C(F)(F)F)cc1Cl [Compound I-7]	90%	–	80%	–
N#Cc1cc(Cl)cc(Cl)c1NC(=O)c1cc(Br)nn1-c1ncccc1Cl [Compound I-4]	100%	100%	98%	98%

From patent publication US8933234B2, “O-amino benzonitrile compounds, method for preparing same and uses thereof” (Hangzhou Udragon Chemical Co., Ltd., priority 2011, dated 2015)
